Experimental data published in US20090169540A1, “Use Of An Antagonist Of Epac For Treating Human Cardiac Hypertrophy” (priority 2005, published 2009).
Where two headings read alike, the source gives them in different places.

Key:
[1] = test system: neonatal rat ventricular myocytes; assay: [3H]-leucine incorporation (protein synthesis), neonatal cardiomyocytes; format: cell-based; details: 8-CPT 1 μM, PE 1 μM or adenovirus
[2] = test system: neonatal rat ventricular myocytes; format: cell-based
[3] = test system: Rac; assay: Rac activation assay (Rac-GTP pull-down), HL-1 atrial cells; format: cell-based, mouse
Procedure: Rac activation was determined as above. […] Rac-GTP samples and total lysates were separated on SDS-PAGE gels and transferred onto a polyvinylidene difluoride (PVDF) membrane (Amersham Pharmacia Biotech).

[4] = test system: ANF promoter (ANF-Luc); assay: ANF-Luc reporter gene assay in neonatal cardiomyocytes; format: cell-based, rat; details: 8-CPT 1 μM, compared to control cells
Procedure: FIGS. 2A, 2C and 2D: Neonatal cardiomycoytes were transfected with ANF-Luc (FIG. 2A), SkM-α-actin-Luc (FIG. 2C) or c-fos-SRE-Luc (FIG. 2D) and EpacWT, RacG12V or the empty vector (mock) as control and treated or not with 8-CPT (1 μM). Two days after transfection, cells were assayed for luciferase activity. Results are expressed as percentage activation of control. Results are means±S.E.M. for 3 independent experiments performed in triplicates.
In FIGS. 8A, 8B and 8C, cardiomyocytes infected with Ad.GFP (control), Ad.RacS17N, Ad.EpacWT, or Ad.EpacWT and Ad.RacS17N were transfected with NFAT-Luc, MEF2-Luc or ANF-Luc. Two days after, Luc activity was determined. Luc activity was normalized to control for each experiment, and were expressed as means±S.E.M of at least 3 separate experiments performed in triplicate
The plasmid constructs were generously provided by the following: a −3003 bp fragment of the rat ANF promoter fused to the luciferase reporter gene (ANF-Luc) by Dr. K. Knowlton, Luciferase reporter genes linked to promoters for skeletal muscle α-actin (SkM-α-actin-Luc) and serum response element-regulated c-fos (c-fos-SRE-Luc) by Dr. M. D. Schneider, Epac1 plasmid constructs by Dr. J. Bos. […]

[5] = test system: neonatal rat ventricular myocytes; assay: Sarcomeric / cytoskeletal organization by phalloidin staining, neonatal cardiomyocytes; format: cell-based; details: 48 h; 8-CPT (1 mM) and PE (1 mM) as printed, in Ad.GFP cells; vs Ad.GFP alone
[6] = test system: neonatal rat ventricular myocytes; assay: Cell surface area by computer-assisted planimetry, neonatal cardiomyocytes; format: cell-based; details: for Cell surface area: 8-CPT 1 μM or PE 1 μM or adenovirus, compared to control Ad.GFP
[7] = test system: Rac; assay: Rac activation assay (Rac-GTP pull-down), primary rat ventricular cardiomyocytes; format: cell-based
[8] = cited from earlier work
[9] = test system: MEF2 (MEF2-Luc); assay: MEF2-Luc transcriptional activity in cardiomyocytes; format: cell-based, rat; details: cells infected with Ad.EpacWT or Ad.Epac-DcAMP; CsA 0.5 μM, KN-93 1 μM, or co-infection

SMILES: CO[C@@H]1[C@@H]2OP(=O)(O)OC[C@H]2O[C@H]1n1c(Sc2ccc(Cl)cc2)nc2c(N)ncnc21 [8-CPT, 8-(4-chloro-phenylthio)-2′-O-methyladenosine-3′-5′cyclic monophosphate]
- Protein synthesis ([3H]-leucine uptake) [1]: approximate two fold increase
- Frequency of spontaneous Ca2+ transients [2]: 0.51±0.04 Hz
- Frequency of spontaneous Ca2+ transients ([2]; 8-CPT 100 nM, physiological external [Ca2+], n=13): 0.40±0.05 Hz
- Ca2+ spike frequency ([2]; 8-CPT 10 μM in the presence of 20 mM external Cs+, n=8): 1.25±0.35 Hz
- Effect on Ca2+ transients ([2]; 8-CPT 10 μM, absence of external Ca2+): had no effect
- Amplitude of Ca2+ spikes ([2]; 8-CPT 10 μM, physiological external [Ca2+]): without changing the amplitude of the spikes
- Ca2+ spike frequency ([2]; 8-CPT 100 μM, absence of external Ca2+, n=4): 0.12±0.02 Hz
- Ca2+ spike frequency ([2]; 8-CPT 100 μM, absence of external Ca2+, presence of H89 1 μM, n=8): 0.23±0.049 Hz
- Amount of Rac-GTP / Rac activation ([3]; HL-1 adult mouse atrial cells, 100 μM, 10 min exposure): strong increase in the amount of Rac-GTP
- Treatment time upon which 8-CPT-induced Rac activation was detected ([3]; HL-1 cells, 8-CPT 10 μM time course (FIG. 1C)): 5 min
- Activation of the ANF-Luc reporter gene [4]: three fold activation
- Cytoskeletal (F-actin) / sarcomeric organization [5]: apparent increase of the F-actin meshwork and an heavily striated appearance
- Cell surface area ([6]; 2 days): two fold increase
- Effect of Ad.EpacWT on cell surface area in the presence of 8-CPT ([6]; Ad.EpacWT-infected cells plus 8-CPT 1 μM): not further increased
- Rac activation in cells infected with Ad.EpacWT ([7]; Ad.EpacWT-infected cells treated with 8-CPT 1 μM for 10 min): further increased
- Rac activation (Rac-GTP) ([7]; activation of endogenous Epac, 8-CPT 1 μM, 10 min, rat cardiac myocytes): increased Rac activation

SMILES: CCCCc1oc2ccccc2c1C(=O)c1cc(I)c(OCCN(CC)CC)c(I)c1 [Amiodarone]
- Hypothyroidism incidence ([8]; as high as, in some series): 8%-19%
- Hyperthyroidism incidence ([8]; human, in vivo): about 2%
- Liver function test abnormalities incidence ([8]; human, in vivo): 4%-9%
- Other serious side effect ([8]; human, in vivo): optic neuropathy, which can lead to blindness
- Proarrhythmia incidence ([8]; human, in vivo): 2%-5%
- Hypothyroidism incidence ([8]; in some cases): 2%-4%

SMILES: O=S(=O)(NCCNC/C=C/c1ccc(Br)cc1)c1cccc2cnccc12 [H89]
- 8-CPT-induced increase in Ca2+ transients frequency ([2]; H89 1 μM, 8-CPT 100 μM, absence of external Ca2+): failed to block

SMILES: COc1ccc(S(=O)(=O)N(CCO)c2ccccc2CN(C)C/C=C/c2ccc(Cl)cc2)cc1 [KN-93]
- Ad.Epac-DcAMP-induced increase in cell surface area ([6]; KN-93 1 μM, 2 days): significantly decreased
- Epac-induced MEF2 transcriptional (luciferase) activity [9]: completely blocked

SMILES: CNC[C@H](O)c1cccc(O)c1 [PE, phenylephrine]
- Protein synthesis ([3H]-leucine uptake) [1]: approximate two fold increase
- Cytoskeletal (F-actin) / sarcomeric organization [5]: comparable
- Cell surface area ([6]; 2 days): Identical results

SMILES: C[C@H](CCC(=O)O)C[C@H](C)C[C@H](C)C(=O)/C=C(\O)[C@H](C)C[C@H](C)C/C=C/[C@@H](C)[C@@H](O)[C@@H](C)[C@@H](O)C[C@@H]1CC[C@@](C)([C@H]2CC[C@@](C)([C@@H](C)O)O2)O1 [ionomycin]
- Effect on Rac activation relative to positive control PE (1 μM) ([7]; ionomycin 1 μM vs PE 1 μM 15 min): as potent as PE
- Rac activation ([7]; ionomycin 1 μM, different times of incubation): increased Rac activation in a time dependent manner
